Reference: ChEMBL document CHEMBL5291721, “A preclinical secondary pharmacology resource illuminates target-adverse drug reaction associations of marketed drugs” (Nat Commun, 2023)

Tests used:
[1] = target: 3',5'-cyclic-AMP phosphodiesterase 4A (Homo sapiens, UniProt P27815); format: functional
[2] = target: T1, D(3) dopamine receptor (Homo sapiens, UniProt P35462)
[3] = target: T2, Muscarinic acetylcholine receptor M2 (Homo sapiens, UniProt P08172)
T2 sequence (P08172 whole entry): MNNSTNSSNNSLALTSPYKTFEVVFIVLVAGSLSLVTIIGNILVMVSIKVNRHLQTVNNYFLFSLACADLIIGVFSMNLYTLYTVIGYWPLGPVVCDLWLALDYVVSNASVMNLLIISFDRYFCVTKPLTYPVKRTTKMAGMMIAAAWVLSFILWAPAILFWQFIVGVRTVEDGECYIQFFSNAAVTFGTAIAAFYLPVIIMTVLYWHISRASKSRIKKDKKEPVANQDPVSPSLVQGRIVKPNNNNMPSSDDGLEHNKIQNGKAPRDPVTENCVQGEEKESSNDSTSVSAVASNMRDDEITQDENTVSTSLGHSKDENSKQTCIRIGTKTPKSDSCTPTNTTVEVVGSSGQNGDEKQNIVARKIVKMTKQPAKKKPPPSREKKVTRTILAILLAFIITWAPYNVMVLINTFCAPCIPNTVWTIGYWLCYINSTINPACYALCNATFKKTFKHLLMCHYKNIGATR

[4] = target: Neuronal acetylcholine receptor subunit alpha-4 (Homo sapiens, UniProt P43681)
Chain of Neuronal acetylcholine receptor subunit alpha-4 (P43681 whole entry): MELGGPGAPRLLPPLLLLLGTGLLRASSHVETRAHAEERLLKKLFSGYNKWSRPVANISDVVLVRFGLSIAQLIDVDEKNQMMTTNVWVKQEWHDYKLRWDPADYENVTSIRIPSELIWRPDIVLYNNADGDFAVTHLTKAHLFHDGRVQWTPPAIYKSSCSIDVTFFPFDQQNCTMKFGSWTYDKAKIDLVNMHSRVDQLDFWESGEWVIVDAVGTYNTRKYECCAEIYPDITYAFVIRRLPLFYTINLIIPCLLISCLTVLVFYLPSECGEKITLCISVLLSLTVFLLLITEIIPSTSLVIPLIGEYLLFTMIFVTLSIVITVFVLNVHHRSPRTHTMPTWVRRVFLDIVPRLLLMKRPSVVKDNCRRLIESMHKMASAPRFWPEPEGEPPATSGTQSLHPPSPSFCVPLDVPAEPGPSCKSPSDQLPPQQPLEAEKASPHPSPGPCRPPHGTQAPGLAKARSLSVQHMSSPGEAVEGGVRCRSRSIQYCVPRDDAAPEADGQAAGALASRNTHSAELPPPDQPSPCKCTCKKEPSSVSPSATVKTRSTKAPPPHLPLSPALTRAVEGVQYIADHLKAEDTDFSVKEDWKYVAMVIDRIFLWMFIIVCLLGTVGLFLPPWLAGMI

[5] = target: T1, D(3) dopamine receptor; remark: listed apart in the source
[6] = target: T3, Adenosine receptor A1 (Homo sapiens, UniProt P30542)
T3 sequence (P30542 whole entry): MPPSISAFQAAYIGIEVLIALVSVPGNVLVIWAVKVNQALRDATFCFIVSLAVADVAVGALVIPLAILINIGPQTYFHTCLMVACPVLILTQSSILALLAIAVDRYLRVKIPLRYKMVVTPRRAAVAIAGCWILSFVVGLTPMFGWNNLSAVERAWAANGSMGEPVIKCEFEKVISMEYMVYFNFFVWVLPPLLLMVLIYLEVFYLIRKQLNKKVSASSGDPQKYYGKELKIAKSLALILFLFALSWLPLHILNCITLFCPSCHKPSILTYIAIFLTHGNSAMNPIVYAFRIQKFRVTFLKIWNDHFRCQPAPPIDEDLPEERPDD

[7] = target: Melanocortin receptor 3 (Homo sapiens, UniProt P41968)
Chain of Melanocortin receptor 3 (P41968 whole entry): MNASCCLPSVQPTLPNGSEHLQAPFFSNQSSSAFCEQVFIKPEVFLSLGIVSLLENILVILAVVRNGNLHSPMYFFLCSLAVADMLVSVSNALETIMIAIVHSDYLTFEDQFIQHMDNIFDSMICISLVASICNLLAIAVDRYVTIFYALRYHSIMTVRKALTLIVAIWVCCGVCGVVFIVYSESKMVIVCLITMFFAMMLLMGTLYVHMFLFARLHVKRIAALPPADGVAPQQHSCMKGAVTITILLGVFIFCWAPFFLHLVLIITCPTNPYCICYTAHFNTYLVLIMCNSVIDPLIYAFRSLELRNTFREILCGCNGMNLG

[8] = target: Growth hormone secretagogue receptor type 1 (Homo sapiens, UniProt Q92847)
Chain of Growth hormone secretagogue receptor type 1 (Q92847 whole entry): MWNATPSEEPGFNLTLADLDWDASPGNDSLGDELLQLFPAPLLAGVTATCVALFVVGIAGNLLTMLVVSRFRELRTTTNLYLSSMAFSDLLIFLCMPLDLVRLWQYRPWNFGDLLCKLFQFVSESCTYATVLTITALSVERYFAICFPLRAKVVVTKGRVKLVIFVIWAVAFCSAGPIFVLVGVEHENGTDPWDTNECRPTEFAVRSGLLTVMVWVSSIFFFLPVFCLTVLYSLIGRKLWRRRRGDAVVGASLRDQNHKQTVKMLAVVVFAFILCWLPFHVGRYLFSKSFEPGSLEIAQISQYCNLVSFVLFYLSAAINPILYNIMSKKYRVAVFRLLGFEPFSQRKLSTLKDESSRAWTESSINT

[9] = target: T4, Adenosine receptor A3 (Homo sapiens, UniProt P0DMS8)
T4 sequence (P0DMS8 whole entry): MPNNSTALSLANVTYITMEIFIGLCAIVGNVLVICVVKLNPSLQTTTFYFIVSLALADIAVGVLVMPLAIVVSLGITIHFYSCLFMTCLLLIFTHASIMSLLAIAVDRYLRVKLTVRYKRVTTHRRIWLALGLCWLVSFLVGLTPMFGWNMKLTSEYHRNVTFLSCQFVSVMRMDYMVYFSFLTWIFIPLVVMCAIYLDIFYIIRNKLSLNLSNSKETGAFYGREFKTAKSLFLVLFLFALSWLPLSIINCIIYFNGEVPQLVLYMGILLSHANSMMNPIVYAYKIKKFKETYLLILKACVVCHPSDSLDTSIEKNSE

[10] = target: T5, 5-hydroxytryptamine receptor 2C (Homo sapiens, UniProt P28335)
T5 sequence (P28335 whole entry): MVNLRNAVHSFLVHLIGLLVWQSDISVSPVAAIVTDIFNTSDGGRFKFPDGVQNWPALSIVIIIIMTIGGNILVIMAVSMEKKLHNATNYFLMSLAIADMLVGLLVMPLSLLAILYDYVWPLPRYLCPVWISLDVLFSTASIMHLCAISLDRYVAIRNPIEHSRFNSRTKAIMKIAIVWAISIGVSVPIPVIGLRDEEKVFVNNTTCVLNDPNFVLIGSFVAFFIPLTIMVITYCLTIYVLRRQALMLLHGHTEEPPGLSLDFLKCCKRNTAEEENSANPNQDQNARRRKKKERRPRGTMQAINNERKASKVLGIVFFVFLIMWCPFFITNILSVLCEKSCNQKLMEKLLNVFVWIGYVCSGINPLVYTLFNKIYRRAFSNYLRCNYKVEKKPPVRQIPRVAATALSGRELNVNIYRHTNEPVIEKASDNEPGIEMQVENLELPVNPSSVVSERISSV

[11] = target: Kappa-type opioid receptor (Homo sapiens, UniProt P41145)
Chain of Kappa-type opioid receptor (P41145 whole entry): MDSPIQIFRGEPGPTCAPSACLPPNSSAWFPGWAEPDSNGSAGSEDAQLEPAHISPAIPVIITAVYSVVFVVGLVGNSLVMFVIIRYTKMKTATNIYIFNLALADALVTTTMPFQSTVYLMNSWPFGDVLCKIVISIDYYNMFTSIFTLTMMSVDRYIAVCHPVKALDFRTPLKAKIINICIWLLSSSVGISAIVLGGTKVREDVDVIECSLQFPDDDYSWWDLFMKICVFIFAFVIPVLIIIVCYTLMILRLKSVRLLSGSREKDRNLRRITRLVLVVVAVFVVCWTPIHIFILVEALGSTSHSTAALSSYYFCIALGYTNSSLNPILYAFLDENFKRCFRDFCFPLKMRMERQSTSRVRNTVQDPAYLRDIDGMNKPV
Note: assay procedure not described here.

Chain of 3',5'-cyclic-AMP phosphodiesterase 4A (P27815 whole entry): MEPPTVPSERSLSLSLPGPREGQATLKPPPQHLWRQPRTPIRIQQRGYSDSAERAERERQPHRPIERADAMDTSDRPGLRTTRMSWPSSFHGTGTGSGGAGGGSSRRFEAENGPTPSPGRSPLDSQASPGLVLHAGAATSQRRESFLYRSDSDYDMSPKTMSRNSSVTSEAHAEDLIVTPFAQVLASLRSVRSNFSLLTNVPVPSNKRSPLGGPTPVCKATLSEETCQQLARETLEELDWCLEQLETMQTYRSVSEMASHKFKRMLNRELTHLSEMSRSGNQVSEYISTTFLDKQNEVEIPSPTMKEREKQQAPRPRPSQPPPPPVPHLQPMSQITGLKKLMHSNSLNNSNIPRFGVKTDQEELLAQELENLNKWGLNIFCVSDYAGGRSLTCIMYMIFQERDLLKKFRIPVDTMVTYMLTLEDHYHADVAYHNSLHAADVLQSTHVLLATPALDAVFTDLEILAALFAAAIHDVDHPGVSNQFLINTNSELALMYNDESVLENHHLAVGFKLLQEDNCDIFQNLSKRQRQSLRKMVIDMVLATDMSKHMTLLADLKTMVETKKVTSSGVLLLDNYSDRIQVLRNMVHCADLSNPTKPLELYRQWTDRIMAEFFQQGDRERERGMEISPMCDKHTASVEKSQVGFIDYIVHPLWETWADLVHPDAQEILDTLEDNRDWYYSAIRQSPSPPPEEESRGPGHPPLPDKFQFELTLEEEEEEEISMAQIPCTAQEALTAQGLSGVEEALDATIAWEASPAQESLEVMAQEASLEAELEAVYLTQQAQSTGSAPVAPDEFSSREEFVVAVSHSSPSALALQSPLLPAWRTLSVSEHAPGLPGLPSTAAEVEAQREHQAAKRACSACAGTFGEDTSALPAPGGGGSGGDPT
T1 sequence (P35462 whole entry): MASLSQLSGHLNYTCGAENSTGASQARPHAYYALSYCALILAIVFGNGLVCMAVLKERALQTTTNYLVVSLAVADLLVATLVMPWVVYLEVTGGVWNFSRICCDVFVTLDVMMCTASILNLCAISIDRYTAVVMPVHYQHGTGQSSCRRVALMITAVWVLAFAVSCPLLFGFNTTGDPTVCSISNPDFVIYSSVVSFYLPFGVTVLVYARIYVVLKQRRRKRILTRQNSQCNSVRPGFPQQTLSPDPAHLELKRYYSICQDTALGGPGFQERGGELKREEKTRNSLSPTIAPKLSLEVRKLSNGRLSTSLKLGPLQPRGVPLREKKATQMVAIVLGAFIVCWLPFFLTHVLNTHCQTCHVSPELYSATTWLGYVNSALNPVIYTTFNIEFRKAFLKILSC

SMILES | AC50 [1] | AC50 [2] | AC50 [3] | AC50 [4] | AC50 [5] | AC50 [6] | AC50 [7] | AC50 [8] | AC50 [9] | AC50 [10] | AC50 [11]
CCCCCCCC(=O)N[C@H](CN1CCCC1)[C@H](O)c1ccc2c(c1)OCCO2 | > 30 µM | > 30 µM | > 30 µM |  |  |  |  |  |  |  | 
C[C@]12CC[C@H](O)CC1=CC[C@@H]1[C@@H]2CC[C@]2(C)C(c3cccnc3)=CC[C@@H]12 [ABIRATERONE] |  |  |  | > 10 µM | > 30 µM | > 30 µM | > 30 µM | > 30 µM | > 30 µM | > 30 µM | > 10 µM
CC(=O)OCC[N+](C)(C)C [ACETYLCHOLINE] | > 30 µM | > 30 µM |  |  | > 30 µM | > 30 µM | > 30 µM | > 30 µM | > 30 µM | > 30 µM | > 10 µM
CN(C)C(=O)Oc1cc(OC(=O)N(C)C)cc(C(O)CNC(C)(C)C)c1 (centres undefined) [BAMBUTEROL] |  |  |  | > 30 µM |  | > 30 µM | > 30 µM | > 30 µM | > 30 µM |  | 
C[C@H]1C[C@H]2[C@@H]3CCC4=CC(=O)C=C[C@]4(C)[C@@]3(Cl)[C@@H](O)C[C@]2(C)[C@@]1(O)C(=O)CO [BECLOMETHASONE] |  |  |  | > 10 µM | > 10 µM | > 30 µM | > 30 µM | > 30 µM | > 30 µM | > 30 µM | > 10 µM
NS(=O)(=O)c1cc(C2(O)NC(=O)c3ccccc32)ccc1Cl (centres undefined) [CHLORTHALIDONE] |  |  |  | > 10 µM | > 30 µM | > 10 µM | > 10 µM | > 10 µM | > 10 µM | > 30 µM | > 10 µM
O=C(O)CC(O)(CC(=O)O)C(=O)O [CITRIC ACID] | > 30 µM | > 30 µM | > 30 µM |  |  |  |  |  |  |  | 
C[C@@H]1CCC[C@H](C)N1NC(=O)c1ccc(Cl)c(S(N)(=O)=O)c1 [CLOPAMIDE] |  |  |  | > 30 µM | > 30 µM | > 30 µM | > 30 µM | > 30 µM | > 30 µM | > 30 µM | > 30 µM
COc1ccc2c(c1)[C@]13CCCC[C@@H]1[C@H](C2)N(C)CC3 [DEXTROMETHORPHAN] |  |  |  | > 10 µM | > 30 µM | > 30 µM | > 30 µM | > 30 µM | > 30 µM | > 30 µM | 
O=c1oc2ccccc2c(O)c1Cc1c(O)c2ccccc2oc1=O [DICUMAROL] |  |  |  | > 10 µM | > 30 µM | > 10 µM | > 10 µM | > 10 µM | > 10 µM | > 30 µM | > 10 µM
C[C@H]1O[C@@H](O[C@H]2[C@@H](O)C[C@H](O[C@H]3[C@@H](O)C[C@H](O[C@H]4CC[C@@]5(C)[C@H](CC[C@@H]6[C@@H]5CC[C@]5(C)[C@@H](C7=CC(=O)OC7)CC[C@]65O)C4)O[C@@H]3C)O[C@@H]2C)C[C@H](O)[C@@H]1O [DIGITOXIN] | > 30 µM | > 30 µM | > 30 µM |  |  |  |  |  |  |  | 
OC(CCCN1CCCCC1)(c1ccccc1)c1ccccc1 [DIPHENIDOL] | > 30 µM | 2.15 µM | 0.944 µM |  |  |  |  |  |  |  | 
O=C(CCCN1CC=C(n2c(=O)[nH]c3ccccc32)CC1)c1ccc(F)cc1 [DROPERIDOL] | > 30 µM | > 30 µM | > 30 µM |  |  |  |  |  |  |  | 
O=C(O)CSCC(=O)NC1CCSC1=O (centres undefined) [ERDOSTEINE] |  |  |  | > 30 µM | > 30 µM | > 30 µM | > 30 µM | > 30 µM | > 30 µM | > 30 µM | > 30 µM
COc1cccc(N(C)C(=S)Oc2ccc3c(c2)CCCC3)n1 [LIRANAFTATE] |  |  |  | > 30 µM | > 30 µM | > 30 µM | > 30 µM | > 30 µM | > 30 µM | > 30 µM | 1.5 µM
C#C[C@]1(O)CC[C@H]2[C@@H]3CCc4cc(OC)ccc4[C@H]3CC[C@@]21C [MESTRANOL] |  |  |  | > 10 µM | > 30 µM | > 30 µM | > 10 µM | > 10 µM | > 30 µM | > 30 µM | > 10 µM
CCC(=O)O[C@@H]1CC(=O)O[C@H](C)C/C=C/C=C/[C@H](OC(C)=O)[C@H](C)C[C@H](CC=O)[C@H](O[C@@H]2O[C@H](C)[C@@H](O[C@H]3C[C@@](C)(OC(C)=O)[C@@H](OC(=O)CC)[C@H](C)O3)[C@H](N(C)C)[C@H]2O)[C@H]1OC [MIOCAMYCIN] | > 30 µM | > 30 µM | > 30 µM |  |  |  |  |  |  |  | 
N=C(N)c1ccc2cc(OC(=O)c3ccc(N=C(N)N)cc3)ccc2c1 [NAFAMOSTAT] |  |  |  | > 30 µM | 4.6 µM | > 30 µM | > 30 µM | 21 µM | 21 µM | > 30 µM | 17 µM
O=C(O)c1cc(O)c2c3nc4ccccc4oc-3cc(=O)c2n1 [PIRENOXINE] |  |  |  | > 30 µM | 1.6 µM | > 30 µM | > 30 µM | > 30 µM | > 30 µM | 2.3 µM | > 30 µM
NS(=O)(=O)c1cc(C(=O)O)cc(N2CCCC2)c1Oc1ccccc1 [PIRETANIDE] |  |  |  | > 30 µM | > 30 µM | > 30 µM | > 30 µM | > 30 µM | > 30 µM | > 30 µM | > 30 µM
CNCCCC1c2ccccc2C=Cc2ccccc21 [PROTRIPTYLINE] |  |  |  | > 10 µM | 0.85 µM | > 10 µM | > 10 µM | > 10 µM | > 10 µM |  | 
CO[C@H]1/C=C/O[C@@]2(C)Oc3c(C)c(O)c4c(O)c(cc(O)c4c3C2=O)NC(=O)/C(C)=C\C=C\[C@H](C)[C@H](O)[C@@H](C)[C@@H](O)[C@@H](C)[C@H](OC(C)=O)[C@@H]1C [RIFAMYCIN] | > 30 µM | > 30 µM | > 30 µM |  |  |  |  |  |  |  | 
O=C(Oc1ccccc1C(=O)O)c1ccccc1O [SALSALATE] | > 30 µM | > 30 µM | > 30 µM |  |  |  |  |  |  |  | 
CC(C)=CCOc1ccc(/C=C/C(=O)c2ccc(OCC=C(C)C)cc2OCC(=O)O)cc1 [SOFALCONE] |  |  |  | > 30 µM | > 30 µM | > 30 µM | > 30 µM | > 30 µM | 5.5 µM | > 30 µM | 12 µM
O=C(CCCN1CCC2(CC1)C(=O)NCN2c1ccccc1)c1ccc(F)cc1 [SPIPERONE] |  |  |  | > 30 µM |  | > 30 µM | > 30 µM | > 10 µM | > 30 µM | 10.3 µM | 
CN(C)c1cc(NC(=O)CNC(C)(C)C)c(O)c2c1C[C@H]1C[C@H]3[C@H](N(C)C)C(O)=C(C(N)=O)C(=O)[C@@]3(O)C(O)=C1C2=O [TIGECYCLINE] |  |  |  | > 30 µM | > 30 µM | > 30 µM | > 30 µM | > 30 µM | 26.9 µM | > 30 µM | > 30 µM
OCCN1CCN(CC/C=C2/c3ccccc3Sc3ccc(Cl)cc32)CC1 [ZUCLOPENTHIXOL] |  |  |  | > 10 µM | 0.046 µM | > 10 µM | > 10 µM | > 10 µM | > 10 µM | 1 µM | 1.94 µM
